Structures can show the parent of a compound that is named as a salt. Where two headings read alike, the source gives them in different places.

The test system of assay [1] is conditioned avoidance response. The assay can be described thus: Rat conditioned avoidance response (CAR). The assay is classed as in vivo, male Holtzman rats. The procedure:
The tranquilizing activity of the compounds of this invention is evidenced by tests conducted in male white rats in which a conditioned avoidance response is interrupted following an oral dose of the drug. This test is predictive of human response to an antipsychotic (tranquilizing) drug. The method of Clark was used (Clark, R., Psychon. Sci. 6, 11, 1966).
The test animals, male Holtzman rats between 90 and 115 grams, were food deprived 18 hours prior to avoidance training. Test drugs were suspended in 0.5% Methocel.
The equipment consisted of a plexiglas pit 5"×5"×9" fitted with a metal floor grid which can be electrified via the output of a shock generator. The top end of the pit opened into a surrounding platform 12"×3-1/2" on all four sides. This pit fitted into a larger plexiglas housing which served both to support the pit and to distribute wires to (a) the electrified floor grid, (b) a sound speaker used for stimulus presentation and (c) a 40 watt incandescent bulb also used for stimulus presentation. The main housing was separate from but attached to a metal frame which supported a noise generator, shock generator, and timing/sequence device. The noise generator was a Grason-Stadler Model 1724, used in the 50 KHz bandwidth with output of -10DB. The two-line shock generator supplied a constant A/C current of 0.19 milliamperes, via constantly scrambled 10 HZ square wave output.
The rats were trained by giving each of them four successive trials 15 to 20 minutes apart with a conditioned stimulus (CS) of a 40-watt incandescent bulb and a white noise plus an unconditioned stimulus (US) of a 0.19 milliampere scrambled shock. Following the four CS+US trials each animal was given an avoidance learning criterion trial in which the CS was presented alone 10 seconds prior to the US.
Rats were dosed orally with compound of the invention or standard drug, 20 rats/dose. Each rat was tested at 60, 120 and 240 minutes after drug.

The test system of assay [2] is tetrabenazine-induced sedation and depression. Briefly: Mouse tetrabenazine (TBZ) antagonism (ptosis and exploratory activity). The assay is classed as in vivo, Carworth CF1 S female mice. The method, then: This mouse test is predictive of human antidepressant response (Everett, "The Dopa Response Potentiation Test and Its Use in Screening for Antidepressant Drugs", pp 164 in "Antidepressant Drugs" [Proceedings of the First International Symposium], S. Garattini and M. N. G. Dukes, eds., 1967).
Groups of 10 Carworth CF1 S female mice, 18-21 g each, were fasted 1.5 hours and were intubated with antagonist compounds at oral doses of 0, 0.33, 1, 3, 9, 27 and 81 mg/kg in 0.20 ml of 1% Methocel®. The mice were challenged 30 minutes later with tetrabenazine (as the methane-sulfonate), 32 mg/kg intraperitoneally (dissolved in 0.20 ml 0.05 M KCl at pH 2.0). One hour after antagonist (30 minutes after tetrabenazine), the mice were examined for signs of exploratory activity and ptosis (eyelid closure). Normal exploratory activity (relief from sedation) was recorded when a mouse lifted by the tail from a group of 10 in a testing box and placed on a stainless steel testing box lid (12.5"×8" with 0.33" mesh) either turned its head horizontally 30° in both directions or moved to the edge of the screen within 10 seconds after being placed on the screen. Relief from ptosis was recorded when exactly two seconds after placing the mouse facing the observer, lid closure was less than 50% in both eyes.

Assay [3] shares this test system. The assay is described as above. The assay is classed as in vivo, Carworth CF1 S female mice. The settings on record: 30 mg/kg, footnote mark stands under PTOSIS.
The mark [4] stands for this setting: po, 1 h, read-out: ED50 TBZ ANTAG. EXPLOR.
[5] abbreviates: po, 1 h, read-out: ED50 TBZ ANTAG. PTOSIS.

In the case of `CCCCN1CC[C@H]2[C@@H](C1)c1cccc3c1N2CCS3` (relative stereo) [CH2, S, n-C4H9, H, cis], the ED50 in assay [1] (po, read-out: ED50 CAR AVOID.) is 5.5 mg/kg; in assay [2] (setting [4]) it was 14 mg/kg; in assay [2] (setting [5]), 11 mg/kg.
`c1cc2c3c(c1)[C@@H]1CNCC[C@@H]1N3CCO2` (relative stereo) [Example 1, (+)-cis-1,2,6b,7,8,9,10,10a-Octahydropyrido[3', 4': 4,5]pyrrolo[1,2,3,-de][1,4]benzoxazine]: the median effective dose (ED50) in assay [1] (po, read-out: ED50 CAR AVOID.) is 2.2 mg/kg; in assay [1] (po, read-out: ED50 CAR ESCAPE), > 25 mg/kg; in assay [2] (setting [4]), 23 mg/kg; in assay [2] (setting [5]) it was 1.4 mg/kg.
On to `Clc1ccc2c3c1[C@@H]1CNCC[C@@H]1N3CCO2` (relative stereo) [Example 2], for which the ED50 in assay [1] (po, read-out: ED50 CAR AVOID.) is ~23 mg/kg; in assay [1] (po, read-out: ED50 CAR ESCAPE), > 50 mg/kg; in assay [2] (setting [4]), 27 mg/kg; in assay [2] (setting [5]) it was 4.3 mg/kg.
`c1cc2c3c(c1)[C@@H]1CN(C4CC4)CC[C@@H]1N3CCO2` (relative stereo) [Example 3]: the ED50 is 28 mg/kg in assay [1] (po, read-out: ED50 CAR AVOID.); 24 mg/kg in assay [2] (setting [4]); 21 mg/kg in assay [2] (setting [5]).
For the molecule `c1cc2c3c(c1)[C@@H]1CNCC[C@@H]1N3CCCO2` (relative stereo) [Example 4], the ED50 in assay [1] (po, read-out: ED50 CAR AVOID.) was 2.2 mg/kg; in assay [1] (po, read-out: ED50 CAR ESCAPE), 14 mg/kg; in assay [2] (setting [4]), 47 mg/kg; in assay [2] (setting [5]), 1.6 mg/kg.
Take `c1cc2c3c(c1)[C@@H]1CNCC[C@@H]1N3CCS2` (relative stereo) [Example 5]: the median effective dose (ED50) is 1.1 mg/kg in assay [1] (po, read-out: ED50 CAR AVOID.); 0.4 mg/kg in assay [2] (setting [4]); 3.3 mg/kg in assay [2] (setting [5]).
In the case of `CN1CC[C@H]2[C@@H](C1)c1cccc3c1N2CCS3` (relative stereo) [Example 6], the ED50 was 17 mg/kg in assay [1] (po, read-out: ED50 CAR AVOID.); > 81 mg/kg in assay [2] (setting [4]); 7.2 mg/kg in assay [2] (setting [5]).
On to `c1cc2c3c(c1)[C@@H]1CN(C4CC4)CC[C@@H]1N3CCS2` (relative stereo) [Example 7], for which the ED50 in assay [2] (setting [4]) was 3.3 mg/kg; in assay [2] (setting [5]), 1.1 mg/kg.
`c1cc2c3c(c1)[C@@H]1CNCC[C@@H]1N3CCCS2` (relative stereo) [Example 8]: the “TBZ ANTAG. activity, subcutaneous (footnote *)” value in assay [3] is listed as “active subcutaneously at 30 mg/kg”.
`c1cc2c3c(c1)[C@@H]1CNCC[C@@H]1N3CCCS2` (relative stereo) [Example 8a]: the ED50 worked out at 2.2 mg/kg in assay [1] (po, read-out: ED50 CAR AVOID.); 54 mg/kg in assay [2] (setting [4]); 6.6 mg/kg in assay [2] (setting [5]).
`c1cc2c3c(c1)[C@@H]1CN(C4CC4)CC[C@@H]1N3CCCS2` (relative stereo) [Example 9]: the ED50 in assay [2] (setting [4]) and in assay [2] (setting [5]) was 68 mg/kg in each case.
With `CC(C)N1CC[C@H]2[C@@H](C1)c1cccc3c1N2CCS3` (relative stereo) [Example 11], the ED50 worked out at 5.5 mg/kg in assay [1] (po, read-out: ED50 CAR AVOID.); 14 mg/kg in assay [2] (setting [4]); 11 mg/kg in assay [2] (setting [5]).
Take `c1cc2c3c(c1)[C@H]1CN(C4CC4)CC[C@@H]1N3CCO2` (relative stereo) [Example 17]: the ED50 is 11.2 mg/kg in assay [2] (setting [4]) and 7.5 mg/kg in assay [2] (setting [5]).
Take `CN1CC[C@H]2[C@H](C1)c1cccc3c1N2CCS3` (relative stereo) [Example 18]: the 50% effective dose (ED50) in assay [1] (po, read-out: ED50 CAR AVOID.) amounted to 28 mg/kg; in assay [2] (setting [4]), 6.5 mg/kg; in assay [2] (setting [5]), 6.5 mg/kg.
Regarding `CN(C)CCC=C1c2ccccc2CCc2ccccc21` [Amitriptyline · HCl, Amitriptyline, reference compound], the ED50 in assay [1] (oral, 20 rats/dose, tested at 60, 120 and 240 min, avoidance, read-out: ED50 CAR AVOID.) is 116 mg/kg; in assay [2] (oral antagonist, tetrabenazine 32 mg/kg i.p. 30 min later, examined 1 h after antagonist, exploratory activity (relief from sedation), read-out: ED50 TBZ ANTAG. EXPLOR.), 4.3 mg/kg; in assay [2] (oral antagonist, tetrabenazine 32 mg/kg i.p. 30 min later, examined 1 h after antagonist, relief from ptosis, read-out: ED50 TBZ ANTAG. PTOSIS), 1.6 mg/kg.
As to `CN(C)CCCN1c2ccccc2Sc2ccc(Cl)cc21` [Chlorpromazine · HCl, Chlorpromazine, reference compound], the median effective dose (ED50) in assay [1] (po, read-out: ED50 CAR AVOID.) was 5.4 mg/kg; in assay [1] (po, read-out: ED50 CAR ESCAPE), ~34 mg/kg; in assay [2] (setting [4]), > 81 mg/kg; in assay [2] (setting [5]), > 81 mg/kg.
`CC1CN2c3c(cccc3[C@@H]3CNCC[C@@H]32)S1` (stereo partly drawn) [Example 10]: the 50% effective dose (ED50) is 8.5 mg/kg in assay [1] (po, read-out: ED50 CAR AVOID.); ~38 mg/kg in assay [1] (po, read-out: ED50 CAR ESCAPE); 27 mg/kg in assay [2] (setting [4]); 23 mg/kg in assay [2] (setting [5]).
As for `CCN1CC[C@@H]2[C@@H](C1)c1cccc3c1N2CCS3` [Example 16, (+)-trans-8-Ethyl-1,2,6b, 7,8,9,10,10a-octahydropyrido[3',4':4,5]pyrrolo[1,2,3-de][1,4]benzothiazine], the 50% effective dose (ED50) stood at 6.2 mg/kg in assay [1] (po, read-out: ED50 CAR AVOID.); 10.8 mg/kg in assay [2] (setting [4]); 7.5 mg/kg in assay [2] (setting [5]).

The record behind these values is patent US4219550A, “Cis- and trans- octahydropyridopyrrolobenzheterocycles” (E. I. Du Pont de Nemours and Company, priority 1978, dated 1980).
